From US20240150377A1, “MODULATORS OF CYSTIC FIBROSIS TRANSMEMBRANE CONDUCTANCE REGULATOR” (VERTEX PHARMACEUTICALS INCORPORATED, priority 2020, published 2024)
Where two headings read alike, the source gives them in different places.

Molecular target: CFTR (Homo sapiens, UniProt P13569)
Assay: Membrane potential dye, Enteroid Assay A
Type: cell-based
Conditions: for Ent. A Max Activity: chloride transport as % of triple combination control (Enteroid Assay A); for EC50: human enteroid cells, 18-24 hours, acute 10 μM forskolin and 300 nM ivacaftor, read-out: Ent. A EC50
Protocol: Base medium (ADF+++) consisted of Advanced DMEM/Ham's F12, 2 mM Glutamax, 10 mM HEPES, […] penicillin/streptomycin.
Intestinal enteroid maintenance medium (IEMM) consisted of ADF+++, 1× B27 supplement, 1× N2 supplement, 1.25 mM N-acetyl cysteine, 10 mM Nicotinamide, 50 ng/mL hEGF, 10 nM Gastrin, 1 μg/mL hR-spondin-1, 100 ng/mL hNoggin, TGF-b type 1 inhibitor A-83-01, 100 μg/mL Primocin, 10 μM P38 MAPK inhibitor SB202190.
Bath 1 Buffer consisted of 1 mM MgCl2, 160 mM NaCl, 4.5 mM KCl, 10 mM HEPES, 10 mM Glucose, 2 mM CaCl2).
Chloride Free Buffer consisted of 1 mM Magnesium Gluconate, 2 mM Calcium Gluconate, 4.5 mM Potassium Gluconate, 160 mM Sodium Gluconate, 10 mM HEPES, 10 mM Glucose.
BathI Dye Solution consisted of Bath 1 Buffer, 0.04% Pluronic F127, 20 μM Methyl Oxonol, 30 μM CaCCinh-A01, 30 μM Chicago Sky Blue.
Chloride Free Dye Solution consisted of Chloride Free Buffer, 0.04% Pluronic F127, 20 μM Methyl Oxonol, 30 μM CaCCinh-A01, 30 μM Chicago Sky Blue.
Chloride Free Dye Stimulation Solution consisted of Chloride Free Dye Solution, 10 μM forskolin, 100 μM IBMX, and 300 nM Compound III.
Human intestinal epithelial enteroid cells were obtained from the Hubrecht Institute for Developmental Biology and Stem Cell Research, Utrecht, The Netherlands and expanded in T-Flasks as previously described (Dekkers J F, Wiegerinck C L, de Jonge H R, Bronsveld I, Janssens H M, de Winter-de Groot K M, Brandsma A M, de Jong N W M, Bijvelds M J C, Scholte B J, Nieuwenhuis E E S, van den Brink S, Clevers H, van der Ent C K, Middendorp S and M Beekman J M. A functional CFTR assay using primary cystic fibrosis intestinal organoids. Nat Med. 2013 July;19(7):939-45.).
3. Enteroid Cell Harvesting and Seeding
Cells were recovered in cell recovery solution, collected by centrifugation at 650 rpm for 5 min at 4° C., resuspended in TrypLE and incubated for 5 min at 37° C. Cells were then collected by centrifugation at 650 rpm for 5 min at 4° C. and resuspended in IEMM containing 10 μM ROCK inhibitor (RI). The cell suspension was passed through a 40 μm cell strainer and resuspended at 1×10^6 cells/mL in IEMM containing 10 μM RI. Cells were seeded at 5000 cells/well into multi-well plates and incubated for overnight at 37° C., 95% humidity and 5% CO2 prior to assay.
4. Membrane Potential Dye, Enteroid Assay A
Enteroid cells were incubated with test compound in IEMM for 18-24 hours at 37° C., 95% humidity and 5% CO2. […] Briefly, cells were washed 5 times in Bath 1 Buffer. Bath 1 Dye Solution was added, and the cells were incubated for 25 min at room temperature. Following dye incubation, cells were washed 3 times in Chloride Free Dye Solution. Chloride transport was initiated by addition of Chloride Free Dye Stimulation Solution and the fluorescence signal was read for 15 min. […] Chloride transport was then expressed as a percentage of the chloride transport following treatment with 3 μM N-[(6-amino-2-pyridyl)sulfonyl]-6-(3-fluoro-5-isobutoxy-phenyl)-2-[(4S)-2,2,4-trimethylpyrrolidin-1-yl]pyridine-3-carboxamide, 3 μM (R)-1-(2,2-difluorobenzo[d][1,3]dioxol-5-yl)-N-(1-(2,3-dihydroxypropyl)-6-fluoro-2-(1-hydroxy-2-methylpropan-2-yl)-1H-indol-5-yl)cyclopropanecarboxamide and 300 nM acute N-[2,4-bis(1,1-dimethylethyl)-5-hydroxyphenyl]-1,4-dihydro-4-oxoquinoline-3-carboxamide triple combination control (% Activity).

CFTR, sequence (P13569 with tags, fused parts or gaps DEL508-508): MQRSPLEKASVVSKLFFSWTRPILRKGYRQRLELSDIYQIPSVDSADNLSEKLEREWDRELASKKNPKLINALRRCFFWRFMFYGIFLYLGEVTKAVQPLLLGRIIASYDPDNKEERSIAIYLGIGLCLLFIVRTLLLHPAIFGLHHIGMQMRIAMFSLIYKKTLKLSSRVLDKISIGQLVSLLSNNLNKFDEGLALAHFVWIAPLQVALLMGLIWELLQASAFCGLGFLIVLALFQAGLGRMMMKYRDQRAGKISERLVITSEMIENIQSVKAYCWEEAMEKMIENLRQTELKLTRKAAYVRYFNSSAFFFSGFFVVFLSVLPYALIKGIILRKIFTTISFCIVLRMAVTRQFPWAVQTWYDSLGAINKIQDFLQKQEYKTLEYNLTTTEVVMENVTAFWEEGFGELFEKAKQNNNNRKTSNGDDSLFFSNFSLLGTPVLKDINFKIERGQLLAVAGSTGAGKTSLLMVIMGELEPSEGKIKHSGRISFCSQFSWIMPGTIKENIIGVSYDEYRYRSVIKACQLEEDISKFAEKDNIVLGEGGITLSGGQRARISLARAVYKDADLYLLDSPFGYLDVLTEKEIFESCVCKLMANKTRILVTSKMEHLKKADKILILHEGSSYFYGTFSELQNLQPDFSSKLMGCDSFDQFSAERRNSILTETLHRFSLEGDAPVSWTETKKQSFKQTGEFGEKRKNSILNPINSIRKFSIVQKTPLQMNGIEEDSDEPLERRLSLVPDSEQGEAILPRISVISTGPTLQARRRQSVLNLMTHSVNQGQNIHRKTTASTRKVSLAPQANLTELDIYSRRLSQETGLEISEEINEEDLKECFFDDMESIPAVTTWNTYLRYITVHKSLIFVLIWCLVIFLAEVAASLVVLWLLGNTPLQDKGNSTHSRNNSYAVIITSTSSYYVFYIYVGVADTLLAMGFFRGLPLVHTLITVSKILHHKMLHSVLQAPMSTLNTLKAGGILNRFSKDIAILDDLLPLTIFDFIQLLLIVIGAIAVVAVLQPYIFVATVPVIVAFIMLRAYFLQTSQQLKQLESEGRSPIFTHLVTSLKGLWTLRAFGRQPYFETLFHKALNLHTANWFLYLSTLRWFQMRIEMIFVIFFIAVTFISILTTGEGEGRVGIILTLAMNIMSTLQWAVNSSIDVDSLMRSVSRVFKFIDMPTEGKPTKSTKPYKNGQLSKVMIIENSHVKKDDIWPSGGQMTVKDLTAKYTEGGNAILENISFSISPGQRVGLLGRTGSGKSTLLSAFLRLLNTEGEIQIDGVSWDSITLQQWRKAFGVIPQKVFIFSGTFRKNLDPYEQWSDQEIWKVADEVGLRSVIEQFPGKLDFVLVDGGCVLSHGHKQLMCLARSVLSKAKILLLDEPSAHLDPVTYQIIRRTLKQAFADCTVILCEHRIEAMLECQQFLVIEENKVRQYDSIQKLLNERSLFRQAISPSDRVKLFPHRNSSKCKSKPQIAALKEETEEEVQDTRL

Row | Structure (SMILES) | Ent. A Max Activity (Table 7) | EC50 (Table 7) [nM] | Ent. A Max Activity (Table 6) | EC50 (Table 6) [nM]
1 | Cc1cccc(C)c1-c1cc2nc(n1)NS(=O)(=O)c1cccc(c1)C(=O)N(CCC1CCOCC1)CC(c1ccc(C(C)(C)C)cc1)O2 (centres unmarked) [Compound 342] |  |  | +++ (+++ is >60%) | < 1000
2 | Cc1cccc(C)c1-c1cc2nc(n1)NS(=O)(=O)c1cccc(c1)C(=O)N(C)C[C@H](c1ccccc1)O2 [Compound 673] |  |  | + (+ is <30%) | 3000 to 30000
3 | Cc1cccc(C)c1-c1cc2nc(n1)NS(=O)(=O)c1cccc(c1)C(=O)N(Cc1ccc(C3CCN(C)CC3)cc1)[C@H](CC(C)C)CO2 [Compound 87, (11R)-6-(2,6-Dimethylphenyl)-11-isobutyl-12-[[4-(1-methyl-4-piperidyl)phenyl]methyl]-2,2-dioxo-9-oxa-2λ^6-thia-3,5,12,19-tetrazatricyclo[12.3.1.14,8]nonadeca-1(18),4(19),5,7,14,16-hexaen-13-one] |  |  | +++ (+++ is >60%) | < 1000
4 | Cc1cccc(C)c1-c1cc2nc(n1)NS(=O)(=O)c1cccc(c1)C(=O)N(C)C(c1ccc(C(C)(C)C)cc1)CO2 (centres unmarked) [Compound 13, 11-(4-tert-butylphenyl)-6-(2,6-dimethylphenyl)-12-methyl-2,2-dioxo-9-oxa-2λ^6-thia-3,5,12,19-tetrazatricyclo[12.3.1.14,8]nonadeca-1(18),4(19),5,7,14,16-hexaen-13-one] | ++ (++ is 30-60%) | < 1000 |  | 
5 | Cc1cccc(C)c1-c1cc2nc(n1)NS(=O)(=O)c1cccc(c1)C(=O)N(CCC(C1CC1)C1CC1)[C@H](CC(C)C)CO2 [Compound 413] | +++ (+++ is >60%) | < 1000 |  | 
6 | Cc1cccc(C)c1-c1cc2nc(n1)NS(=O)(=O)c1cccc(c1)C(=O)N(Cc1ccn[nH]1)[C@H](CC(C)C)CO2 [Compound 860] |  |  | +++ (+++ is >60%) | < 1000
7 | Cc1cccc(C)c1-c1cc2nc(n1)NS(=O)(=O)c1cccc(c1)C(=O)N(CC1CCCC1)[C@H](CC(C)C)CO2 [Compound 350] |  |  | +++ (+++ is >60%) | < 1000
8 | Cc1cccc(C)c1-c1cc2nc(n1)NS(=O)(=O)c1cccc(c1)C(=O)N(Cc1ccccc1)C(CCC1(C(F)(F)F)CC1)CO2 (centres unmarked) [Compound 689] |  |  | +++ (+++ is >60%) | < 1000
9 | Cc1cccc(C)c1-c1cc2nc(n1)NS(=O)(=O)c1cccc(c1)C(=O)N(C)CC(c1ccc(-c3ccc(C(C)(C)C)cc3)cn1)O2 (centres unmarked) [Compound 511] |  |  | +++ (+++ is >60%) | < 1000
10 | CNc1ccc(CN2C(=O)c3cccc(c3)S(=O)(=O)Nc3nc(cc(-c4c(C)cccc4C)n3)OC[C@H]2CC(C)C)cn1 [Compound 857] |  |  | +++ (+++ is >60%) | < 1000
11 | Cc1cccc(C)c1-c1cc2nc(n1)NS(=O)(=O)c1cccc(c1)C(=O)N(C)CC(c1ccc(C3=CCOCC3)cc1)O2 (centres unmarked) [Compound 670] | ++ (++ is 30-60%) | 1000 to 3000 |  | 
12 | Cc1cccc(C)c1-c1cc2nc(n1)NS(=O)(=O)c1cccc(c1)C(=O)N(Cc1ccccn1)CCCO2 [Compound 5, 6-(2,6-Dimethylphenyl)-2,2-dioxo-13-(2-pyridylmethyl)-9-oxa-2λ^6-thia-3,5,13,20-tetrazatricyclo[13.3.1.14,8]icosa-1(19),4(20),5,7,15,17-hexaen-14-one] |  |  | +++ (+++ is >60%) | 1000 to 3000
13 | Cc1cccc(C)c1-c1cc2nc(n1)NS(=O)(=O)c1cccc(c1)C(=O)N(Cc1cccn(C)c1=O)[C@H](CC(C)C)CO2 [Compound 417] | +++ (+++ is >60%) | < 1000 |  | 
14 | COc1cccc(CN2C(=O)c3cccc(c3)S(=O)(=O)Nc3nc(cc(-c4c(C)cccc4C)n3)OC[C@H]2CC(C)C)n1 [Compound 423] |  |  | +++ (+++ is >60%) | < 1000
15 | CCN(CCO)c1ccc(CN2C(=O)c3cccc(c3)S(=O)(=O)Nc3nc(cc(-c4c(C)cccc4C)n3)OC[C@H]2CC(C)C)cn1 [Compound 935] | +++ (+++ is >60%) | < 1000 |  | 

The remaining lines, values ahead:

Row | Ent. A Max Activity (Table 7) | EC50 (Table 7) [nM] | Ent. A Max Activity (Table 6) | EC50 (Table 6) [nM] | Structure (SMILES)
16 | +++ (+++ is >60%) | < 1000 |  |  | Cc1cccc(C)c1-c1cc2nc(n1)NS(=O)(=O)c1cccc(c1)C(=O)N(Cc1ccc(N3CCC[C@@H]3C)nc1)[C@H](CC(C)C)CO2 [Compound 960]
17 | + (+ is <30%) |  |  |  | CC(=O)N1Cc2cccc(c2)S(=O)(=O)Nc2nc(cc(-c3c(C)cccc3C)n2)OC[C@H]1CC(C)C [Compound 1025]
18 | ++ (++ is 30-60%) | < 1000 |  |  | Cc1cccc(C)c1-c1cc2nc(n1)NS(=O)(=O)c1cccc(c1)C(=O)N(Cc1ccc(N3CCC(C(F)(F)F)CC3)nc1)[C@H](CC(C)C)CO2 [Compound 969]
19 | +++ (+++ is >60%) | < 1000 |  |  | Cc1cccc(C)c1-c1cc2nc(n1)NS(=O)(=O)c1cccc(c1)C(=O)N(Cc1ccc(N3CCC4(CCC4)CC3)nc1)[C@H](CC(C)C)CO2 [Compound 936]
20 | + + | < 1000 |  |  | COCCN1Cc2cccc(c2)S(=O)(=O)Nc2nc(cc(-c3c(C)cccc3C)n2)OC[C@H]1CC(C)C [Compound 1042]
21 | ++ (++ is 30-60%) | < 1000 |  |  | Cc1cccc(C)c1-c1cc2nc(n1)NS(=O)(=O)c1cccc(c1)CN(CCn1c(=O)oc3ccccc31)[C@H](CC(C)C)CO2 [Compound 1039]
22 | +++ (+++ is >60%) | < 1000 |  |  | Cc1cccc(C)c1-c1cc2nc(n1)NS(=O)(=O)c1cccc(c1)C(=O)N(Cc1ccc(N3CCCC(O)C3)nc1)[C@H](CC(C)C)CO2 (some centres unmarked) [Compound 963]
23 | ++ (++ is 30-60%) | < 1000 |  |  | CCOc1cc(CN2Cc3cccc(c3)S(=O)(=O)Nc3nc(cc(-c4c(C)cccc4C)n3)OC[C@H]2CC(C)C)ccc1OC [Compound 1038]
24 | +++ (+++ is >60%) | < 1000 |  |  | Cc1cccc(C)c1-c1cc2nc(n1)NS(=O)(=O)c1cccc(c1)C(=O)N(Cc1ccc(NCCO)nc1)[C@H](CC(C)C)CO2 [Compound 946]
25 | + (+ is <30%) |  |  |  | Cc1cccc(C)c1-c1cc2nc(n1)NS(=O)(=O)c1cccc(c1)CN(C(=O)CC(C)(C)C)[C@H](CC(C)C)CO2 [Compound 1046]
26 | + (+ is <30%) | < 1000 |  |  | Cc1cccc(C)c1-c1cc2nc(n1)NS(=O)(=O)c1cccc(c1)C(=O)N(CCC(C)(C)C)[C@H](C)CO2 [Compound 987]
27 | + (+ is <30%) |  |  |  | COC1CCC(CC(=O)N2Cc3cccc(c3)S(=O)(=O)Nc3nc(cc(-c4c(C)cccc4C)n3)OC[C@H]2CC(C)C)CC1 (some centres unmarked) [Compound 1047]
28 | +++ (+++ is >60%) | < 1000 |  |  | Cc1cccc(C)c1-c1cc2nc(n1)NS(=O)(=O)c1cccc(c1)CN(Cc1cccnc1OCC1CC1)[C@H](CC(C)C)CO2 [Compound 1028]
29 | ++ (++ is 30-60%) | < 1000 |  |  | Cc1cccc(C)c1-c1cc2nc(n1)NS(=O)(=O)c1cccc(c1)C(=O)N(CCC1CCOCC1)[C@H](CC(F)(F)F)CO2 [Compound 983]
30 | ++ (++ is 30-60%) | < 1000 |  |  | Cc1cccc(C)c1-c1cc2nc(n1)NS(=O)(=O)c1cccc(c1)C(=O)N(CCC(C)(C)C)[C@H](CC(F)(F)F)CO2 [Compound 985]
31 | +++ (+++ is >60%) | < 1000 |  |  | Cc1cccc(C)c1-c1cc2nc(n1)NS(=O)(=O)c1cccc(c1)C(=O)N(Cc1ccc(N3CCC(C(C)(C)C)CC3)nc1)[C@H](CC(C)C)CO2 [Compound 941]
